pIC50: −log10 of the molar value.

What all share (type): cell-based
For assay [1], the target named is HER2 (A775_G776insYVMA) expressing Ba/F3 stable cell line (Homo sapiens, UniProt P04626, DUP772-775, cells depend on it). The experiment in a line: Cellular proliferation (Alamar Blue) assay, HER2 YVMA Ba/F3. The settings on record: HER2 A775_G776insYVMA Ba/F3, 72 hr, read-out: YVMA IC50. As for the experimental part:
Example 3: Cellular Proliferation (Alamar Blue) Assays
• 1. EGFR(D770_N771insSVD) expressing Ba/F3 stable cell line • 2. EGFR (A767_dupASV) expressing Ba/F3 stable cell line • 3. A431 cells • 4. BTER2 (A775_G776insYVMA) expressing Ba/F3 stable cell line • 5. BTER2 (WT) expressing Ba/F3 stable cell line • 6. BT-474 cells
• 1. Seed cells at 5000 for A431 and 15,000 cells for Ba/F3 in 100 μL/well in complete media (for A431: DMEM with 10% FBS and for Ba/F3 cells: RPMI with 10% FBS) in 96-well tissue culture plate. Leave outer wells without cells for background measurements. Incubate at 37 degree Celsius in 5% CO2 humidified incubator for 16-18 hours. • 2. Add 0.025 ml of 5× concentration compound dilution or DMSO control. Final compound concentration range is 10-0.0005 μM prepared in 3-fold serial dilutions. Incubate for 72 hr at 37 degree Celsius in […] humidified incubator. • 3. Add 0.0125 mL Alamar Blue™ reagent to each well with multi-channel pipette and tap gently on each side of the plate to mix. Incubate for 3 hours at 37 degree Celsius in […] humidified incubator. • 4. Read plates on fluorescence reader (Tecan Spark Control, Device: Spark, Serial #: 1801006040) at 540 nm excitation, 590 nm emission wavelength. • 5. Data analysis was performed using XLfit 5.5.0.5.

The target in assay [2] is EGFR(D770_N771insSVD) expressing Ba/F3 stable cell line (Homo sapiens, UniProt P00533, DUP768-770, cells depend on it). The experiment in a line: Cellular proliferation (Alamar Blue) assay, EGFR D770_N771insSVD Ba/F3. The settings on record: EGFR D770_N771insSVD Ba/F3, 72 hr, read-out: D770 IC50. Put shortly: (§1)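 Alamar Blue proliferation read-out (3 h incubation, ex 540/em 590 nm) after 72 h compound exposure at 37 °C, 5% CO2, using final concentrations of 10-0.0005 μM in 3-fold steps. Cells: engineered Ba/F3 lines at 15,000 per well in RPMI/10% FBS, and BT-474.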

In a further assay the test system is A431 cells. In words: Cellular proliferation (Alamar Blue) assay, A431. The settings on record: Homo sapiens, A-431; A431 cells, 72 hr, Alamar Blue; read-out: A431 IC50. Put shortly:
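Seventy-two-hour growth assay with 3-fold compound titration (final 10–0.0005 μM) and Alamar Blue fluorescence end point, ex 540/em 590 nm.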

The target of assay [3] is EGFR (A767_dupASV) expressing Ba/F3 stable cell line (Homo sapiens, UniProt P00533, DUP767-769, cells depend on it). In words: Cellular proliferation (Alamar Blue) assay, EGFR A767_dupASV Ba/F3. The settings on record: EGFR A767_dupASV Ba/F3, 72 hr, read-out: A767 IC50. Put shortly: as §1
Background: The colour change of resazurin is a common sign of viable cells or microbes.

EGFR (A767_dupASV) expressing Ba/F3 stable cell line, sequence (P00533 with tags, fused parts or gaps DUP767-769): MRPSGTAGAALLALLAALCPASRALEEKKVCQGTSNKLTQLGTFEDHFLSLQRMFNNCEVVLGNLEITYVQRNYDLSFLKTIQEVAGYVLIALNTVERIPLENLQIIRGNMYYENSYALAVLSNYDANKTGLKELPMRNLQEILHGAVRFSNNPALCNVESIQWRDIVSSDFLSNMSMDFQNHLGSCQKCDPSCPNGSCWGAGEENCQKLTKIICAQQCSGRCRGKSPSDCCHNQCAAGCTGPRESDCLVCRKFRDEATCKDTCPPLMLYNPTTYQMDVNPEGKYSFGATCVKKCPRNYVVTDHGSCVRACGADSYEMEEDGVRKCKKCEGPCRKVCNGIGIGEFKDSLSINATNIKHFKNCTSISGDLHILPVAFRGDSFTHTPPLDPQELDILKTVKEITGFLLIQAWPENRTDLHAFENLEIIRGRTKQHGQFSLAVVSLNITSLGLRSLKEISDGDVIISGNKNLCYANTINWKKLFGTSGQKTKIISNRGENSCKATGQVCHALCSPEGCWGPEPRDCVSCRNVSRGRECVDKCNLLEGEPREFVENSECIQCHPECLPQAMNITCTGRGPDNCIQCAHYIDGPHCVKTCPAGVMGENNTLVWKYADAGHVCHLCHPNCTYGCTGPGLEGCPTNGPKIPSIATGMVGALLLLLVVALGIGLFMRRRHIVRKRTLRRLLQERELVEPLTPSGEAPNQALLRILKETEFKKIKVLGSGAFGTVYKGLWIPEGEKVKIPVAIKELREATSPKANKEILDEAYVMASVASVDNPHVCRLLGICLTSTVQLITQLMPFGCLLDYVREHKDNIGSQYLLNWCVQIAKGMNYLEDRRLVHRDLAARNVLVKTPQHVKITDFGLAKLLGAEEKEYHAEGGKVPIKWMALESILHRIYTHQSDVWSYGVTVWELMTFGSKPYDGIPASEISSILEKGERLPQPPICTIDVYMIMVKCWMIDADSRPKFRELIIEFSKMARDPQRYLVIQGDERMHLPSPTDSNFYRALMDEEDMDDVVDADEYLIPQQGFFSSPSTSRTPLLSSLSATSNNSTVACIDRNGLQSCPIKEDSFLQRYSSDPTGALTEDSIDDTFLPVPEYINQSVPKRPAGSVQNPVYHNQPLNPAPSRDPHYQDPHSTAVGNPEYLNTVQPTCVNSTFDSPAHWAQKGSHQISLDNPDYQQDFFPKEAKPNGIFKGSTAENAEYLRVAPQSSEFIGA
EGFR(D770_N771insSVD) expressing Ba/F3 stable cell line, sequence (P00533 with tags, fused parts or gaps DUP768-770): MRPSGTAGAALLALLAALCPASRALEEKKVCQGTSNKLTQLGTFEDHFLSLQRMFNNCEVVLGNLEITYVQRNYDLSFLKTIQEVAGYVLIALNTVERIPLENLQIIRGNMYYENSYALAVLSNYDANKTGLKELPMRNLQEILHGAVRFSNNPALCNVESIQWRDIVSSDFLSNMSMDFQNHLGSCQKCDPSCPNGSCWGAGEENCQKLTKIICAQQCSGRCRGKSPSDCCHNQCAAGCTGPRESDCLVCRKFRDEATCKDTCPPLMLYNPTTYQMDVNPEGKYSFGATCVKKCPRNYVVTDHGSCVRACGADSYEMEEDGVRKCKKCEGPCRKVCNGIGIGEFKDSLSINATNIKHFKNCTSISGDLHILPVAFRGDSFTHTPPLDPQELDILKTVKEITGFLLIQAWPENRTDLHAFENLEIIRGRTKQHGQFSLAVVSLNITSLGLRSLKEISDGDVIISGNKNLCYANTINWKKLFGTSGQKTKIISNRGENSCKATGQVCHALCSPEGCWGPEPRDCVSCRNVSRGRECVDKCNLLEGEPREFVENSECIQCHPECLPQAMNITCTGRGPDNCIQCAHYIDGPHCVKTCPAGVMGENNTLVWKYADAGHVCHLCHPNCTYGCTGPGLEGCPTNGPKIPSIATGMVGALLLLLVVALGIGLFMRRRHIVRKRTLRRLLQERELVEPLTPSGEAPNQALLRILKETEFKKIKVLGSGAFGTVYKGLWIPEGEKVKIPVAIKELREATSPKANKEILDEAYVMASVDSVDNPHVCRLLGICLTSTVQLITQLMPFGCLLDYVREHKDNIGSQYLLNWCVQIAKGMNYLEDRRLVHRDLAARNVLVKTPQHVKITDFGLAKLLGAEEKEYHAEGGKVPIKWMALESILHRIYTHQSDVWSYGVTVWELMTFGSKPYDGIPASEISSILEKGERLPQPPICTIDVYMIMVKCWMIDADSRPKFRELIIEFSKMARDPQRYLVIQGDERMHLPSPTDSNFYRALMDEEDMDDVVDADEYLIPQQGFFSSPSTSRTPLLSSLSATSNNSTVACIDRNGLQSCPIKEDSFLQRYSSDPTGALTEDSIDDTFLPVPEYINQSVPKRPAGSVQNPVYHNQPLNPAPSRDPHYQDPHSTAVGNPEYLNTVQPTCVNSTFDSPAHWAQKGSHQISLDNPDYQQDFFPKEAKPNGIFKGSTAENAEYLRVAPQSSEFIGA
HER2 (A775_G776insYVMA) expressing Ba/F3 stable cell line, sequence (P04626 with tags, fused parts or gaps DUP772-775): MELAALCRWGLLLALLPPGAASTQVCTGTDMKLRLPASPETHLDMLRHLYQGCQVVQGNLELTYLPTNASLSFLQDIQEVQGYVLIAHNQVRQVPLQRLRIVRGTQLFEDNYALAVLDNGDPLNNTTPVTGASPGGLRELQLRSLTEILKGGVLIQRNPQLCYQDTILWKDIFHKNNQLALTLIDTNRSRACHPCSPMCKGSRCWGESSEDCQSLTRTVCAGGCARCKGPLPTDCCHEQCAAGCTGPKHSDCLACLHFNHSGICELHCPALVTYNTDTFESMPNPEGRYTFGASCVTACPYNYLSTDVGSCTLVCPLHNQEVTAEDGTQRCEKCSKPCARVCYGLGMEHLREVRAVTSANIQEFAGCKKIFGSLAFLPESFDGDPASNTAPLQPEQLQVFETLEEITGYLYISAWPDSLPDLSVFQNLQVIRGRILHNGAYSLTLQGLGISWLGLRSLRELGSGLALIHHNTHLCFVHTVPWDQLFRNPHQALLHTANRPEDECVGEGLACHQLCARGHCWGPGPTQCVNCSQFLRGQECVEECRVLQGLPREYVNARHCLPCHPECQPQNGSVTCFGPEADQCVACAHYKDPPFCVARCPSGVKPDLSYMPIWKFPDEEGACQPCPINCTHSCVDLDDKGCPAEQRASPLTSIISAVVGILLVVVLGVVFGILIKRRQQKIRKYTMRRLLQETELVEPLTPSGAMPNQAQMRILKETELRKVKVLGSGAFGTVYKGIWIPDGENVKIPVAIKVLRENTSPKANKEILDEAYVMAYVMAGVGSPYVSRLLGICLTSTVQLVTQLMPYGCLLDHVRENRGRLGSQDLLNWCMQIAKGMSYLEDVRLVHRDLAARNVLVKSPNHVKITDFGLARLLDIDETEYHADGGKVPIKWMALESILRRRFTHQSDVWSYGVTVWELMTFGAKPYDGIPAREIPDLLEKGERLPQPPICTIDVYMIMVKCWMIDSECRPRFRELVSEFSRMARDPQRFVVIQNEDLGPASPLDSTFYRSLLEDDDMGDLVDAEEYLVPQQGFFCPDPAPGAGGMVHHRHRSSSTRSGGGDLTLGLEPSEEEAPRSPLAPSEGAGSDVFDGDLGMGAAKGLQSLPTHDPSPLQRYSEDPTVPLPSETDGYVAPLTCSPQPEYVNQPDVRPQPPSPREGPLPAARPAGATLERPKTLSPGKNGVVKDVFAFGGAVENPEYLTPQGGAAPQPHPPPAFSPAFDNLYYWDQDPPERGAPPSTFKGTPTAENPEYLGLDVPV

As usually defined, the pIC50 is the IC50 on a negative log10 scale, so that one unit is a factor of ten. `Cn1cc(Nc2ncc3c(n2)N(c2cccc(NC(=O)/C=C/CN4CCCCC4)c2)C(=O)N(Cc2ccccc2)C3)c(Cl)n1` [Compound 70, (E)-N-(3-(3-benzyl-7-((3-chloro-1-methyl-1H-pyrazol-4-yl)amino)-2-oxo-3,4-dihydropyrimido[4,5-d]pyrimidin-1(2H)-yl)phenyl)-4-(piperidin-1-yl)but-2-enamide]: the GI50 in assay [1] turned out to be 38 nM; in assay [2], 72 nM; in assay [3] it was 42 nM. For the same molecule, in the assay with A431 cells, the pIC50 is no more than 5.00.
For `C=CC(=O)Nc1cccc(N2C(=O)N(Cc3ccccc3)Cc3cnc(Nc4cn(C)nc4F)nc32)c1` [Compound 71, N-(3-(3-benzyl-7-((3-fluoro-1-methyl-1H-pyrazol-4-yl)amino)-2-oxo-3,4-dihydropyrimido[4,5-d]pyrimidin-1(2H)-yl)phenyl)acrylamide] the same measures were 137 nM, 21 nM, 22 nM and no more than 5.00.
For `C=CC(=O)Nc1cccc(N2C(=O)N(Cc3ccccc3)Cc3cnc(Nc4ccc(N5CCC(N(C)C)CC5)nc4)nc32)c1` [Compound 72, N-(3-(3-benzyl-7-((6-(4-(dimethylamino)piperidin-1-yl)pyridin-3-yl)amino)-2-oxo-3,4-dihydropyrimido[4,5-d]pyrimidin-1(2H)-yl)phenyl)acrylamide] the same measures were 575 nM, 296 nM, 100 nM and no more than 5.00.
For `C=CC(=O)Nc1cccc(N2C(=O)N(Cc3ccccc3)Cc3cnc(Nc4cn(C)nc4Cl)nc32)c1` [Compound 73, N-(3-(3-benzyl-7-((3-chloro-1-methyl-1H-pyrazol-4-yl)amino)-2-oxo-3,4-dihydropyrimido[4,5-d]pyrimidin-1(2H)-yl)phenyl)acrylamide] the same measures were 49 nM, 20 nM, 4 nM and no more than 5.00.
As to `Cn1cc(Nc2ncc3c(n2)N(c2cccc(NC(=O)/C=C/CF)c2)C(=O)N(Cc2ccccc2)C3)c(Cl)n1` [Compound 74, (E)-N-(3-(3-benzyl-7-((3-chloro-1-methyl-1H-pyrazol-4-yl)amino)-2-oxo-3,4-dihydropyrimido[4,5-d]pyrimidin-1(2H)-yl)phenyl)-4-fluorobut-2-enamide], the GI50 in assay [1] is 80 nM; in assay [2], 25 nM; in assay [3] it was 11 nM. In the assay on A431 cells, the pIC50 was no more than 5.00.
For `C=CC(=O)Nc1cccc(N2C(=O)N(Cc3ccccc3)Cc3cnc(Nc4cccc5c4CCN5C)nc32)c1` [Compound 79, N-(3-(3-benzyl-7-((1-methylindolin-4-yl)amino)-2-oxo-3,4-dihydropyrimido[4,5-d]pyrimidin-1(2H)-yl)phenyl)acrylamide] the same measures were 338 nM, 107 nM, 89 nM and no more than 5.00.
For `CN(C)C/C=C/C(=O)Nc1cccc(N2C(=O)N(Cc3ccccc3)Cc3cnc(Nc4cccc5c4CCN5C)nc32)c1` [Compound 80, (E)-N-(3-(3-benzyl-7-((1-methylindolin-4-yl)amino)-2-oxo-3,4-dihydropyrimido[4,5-d]pyrimidin-1(2H)-yl)phenyl)-4-(dimethylamino)but-2-enamide] the same measures were 296 nM, 806 nM, 343 nM and no more than 5.00.
Regarding `C=CC(=O)Nc1ccc(F)c(N2C(=O)N(Cc3ccccc3)Cc3cnc(Nc4cn(C)nc4Cl)nc32)c1` [Compound 81, N-(3-(3-benzyl-7-((3-chloro-1-methyl-1H-pyrazol-4-yl)amino)-2-oxo-3,4-dihydropyrimido[4,5-d]pyrimidin-1(2H)-yl)-4-fluorophenyl)acrylamide], the GI50 in assay [1] was 13 nM; in assay [2], 35 nM; in assay [3] it was 27 nM. The pIC50 in the assay on A431 cells is no more than 5.00.
For the molecule `Cn1cc(Nc2ncc3c(n2)N(c2cccc(NC(=O)/C=C/CN4CCCCC4)c2)C(=O)N(Cc2ccccc2)C3)c(F)n1` [Compound 82, (E)-N-(3-(3-benzyl-7-((3-fluoro-1-methyl-1H-pyrazol-4-yl)amino)-2-oxo-3,4-dihydropyrimido[4,5-d]pyrimidin-1(2H)-yl)phenyl)-4-(piperidin-1-yl)but-2-enamide], the GI50 in assay [1] came to 40 nM; in assay [2], 280 nM; in assay [3] it was 123 nM. Further, in the assay with A431 cells, the pIC50 was no more than 5.00.
For `COC/C=C/C(=O)Nc1cccc(N2C(=O)N(Cc3ccccc3)Cc3cnc(Nc4cn(C)nc4F)nc32)c1` [Compound 83, (E)-N-(3-(3-benzyl-7-((3-fluoro-1-methyl-1H-pyrazol-4-yl)amino)-2-oxo-3,4-dihydropyrimido[4,5-d]pyrimidin-1(2H)-yl)phenyl)-4-methoxybut-2-enamide] the same measures were 740 nM, 992 nM, 1010 nM and no more than 5.00.
In the same order, the values of `CN(C)C/C=C/C(=O)Nc1ccc(F)c(N2C(=O)N(Cc3ccccc3)Cc3cnc(Nc4cn(C)nc4Cl)nc32)c1` [Compound 85, (E)-N-(3-(3-benzyl-7-((3-chloro-1-methyl-1H-pyrazol-4-yl)amino)-2-oxo-3,4-dihydropyrimido[4,5-d]pyrimidin-1(2H)-yl)-4-fluorophenyl)-4-(dimethylamino)but-2-enamide] are 38 nM, 123 nM, 94 nM and 5.89.
In the same order, the values of `Cn1cc(Nc2ncc3c(n2)N(c2cccc(NC(=O)/C=C/CF)c2)C(=O)N(Cc2ccccc2)C3)c(F)n1` [Compound 88, (E)-N-(3-(3-benzyl-7-((3-fluoro-1-methyl-1H-pyrazol-4-yl)amino)-2-oxo-3,4-dihydropyrimido[4,5-d]pyrimidin-1(2H)-yl)phenyl)-4-fluorobut-2-enamide] are 101 nM, 40 nM, 22 nM and less than 5.00.
`CN(C)C/C=C/C(=O)Nc1cccc(N2C(=O)N(c3ccccc3)Cc3cnc(Nc4cn(C5CCN(C)CC5)nc4Cl)nc32)c1` [Compound 106, (E)-N-(3-(7-((3-chloro-1-(1-methylpiperidin-4-yl)-1H-pyrazol-4-yl)amino)-2-oxo-3-phenyl-3,4-dihydropyrimido[4,5-d]pyrimidin-1(2H)-yl)phenyl)-4-(dimethylamino)but-2-enamide]: the GI50 came to 995 nM in assay [1], 1110 nM in assay [2] and 926 nM in assay [3]. Further, the pIC50 in the assay with A431 cells was 5.05.
For `CN(C)C/C=C/C(=O)Nc1cccc(N2C(=O)N(c3ccccc3)Cc3cnc(Nc4cnn(C5CCC(O)CC5)c4)nc32)c1` (stereo not shown) [Compound 107, (E)-4-(dimethylamino)-N-(3-(7-((1-(4-hydroxycyclohexyl)-1H-pyrazol-4-yl)amino)-2-oxo-3-phenyl-3,4-dihydropyrimido[4,5-d]pyrimidin-1(2H)-yl)phenyl)but-2-enamide] the same measures were no less than 10000 nM, no less than 10000 nM, no less than 10000 nM and no more than 5.00.
For `C=CC(=O)Nc1cccc(N2C(=O)N(c3ccccc3)Cc3cnc(Nc4cnn(C5CCC(O)CC5)c4)nc32)c1` (stereo not shown) [Compound 108, N-(3-(7-((1-(4-hydroxycyclohexyl)-1H-pyrazol-4-yl)amino)-2-oxo-3-phenyl-3,4-dihydropyrimido[4,5-d]pyrimidin-1(2H)-yl)phenyl)acrylamide] the same measures were 2020 nM, 634 nM, 912 nM and no more than 5.00.
As to `CN(C)C/C=C/C(=O)Nc1cccc(N2C(=O)N(c3ccccc3)Cc3cnc(Nc4ccc(N5CCN(C)CC5)nc4)nc32)c1` [Compound 109, (E)-4-(dimethylamino)-N-(3-(7-((6-(4-methylpiperazin-1-yl)pyridin-3-yl)amino)-2-oxo-3-phenyl-3,4-dihydropyrimido[4,5-d]pyrimidin-1(2H)-yl)phenyl)but-2-enamide], the GI50 stood at 3300 nM in assay [1], 6030 nM in assay [2] and 2320 nM in assay [3]. Besides, in the assay on A431 cells, the pIC50 is no more than 5.00.
